# Measurements from paper PMC9387934, “Randomized single oral dose phase 1 study of safety, tolerability, and pharmacokinetics of Iminosugar UV-4 Hydrochloride (UV-4B) in healthy subjects” (PLoS Neglected Tropical Diseases, 2022).
# Structures can show the parent of a compound that is named as a salt.
# Experiments:
# [1] = Phase 1a single ascending dose study: safety and tolerability (treatment-emergent adverse events); type: in vivo, human; conditions: for Tolerability of single oral doses / Dose-limiting toxicity: po; for Maximum tolerated dose: single oral dose in humans, not yet determined
# Procedure: UV-4 ((2R,3R,4R,5S)-2-(hydroxymethyl)-1-(9-methoxynonyl)piperidine-3,4,5-triol, also called N-(9’-methoxynonyl)-1-deoxynojirimycin, or MON-DNJ) hydrochloride was evaluated in a first-in-human, randomized, single-center, double-blind, placebo-controlled, parallel group, single ascending dose Phase 1a clinical trial in healthy subjects (Figs 1 and 2, ClinicalTrials.gov Identifier NCT02061358 https://clinicaltrials.gov/ct2/show/NCT02061358). The primary objective was to determine the safety and tolerability of a single-ascending oral dose of UV-4 hydrochloride (Fig 3). […] The secondary objective was to determine PK parameters describing absorption and elimination of UV-4 following a single oral dose of UV-4 hydrochloride. Eight cohorts of eight subjects each were enrolled and completed the study. In each cohort, six subjects received UV-4 as the hydrochloride; two received placebo. Subjects were screened against study eligibility criteria up to four weeks (Days -28 to -2) before admission to the clinic (Day -1). Dosing was performed on an inpatient basis. Subjects remained in clinic for 48 hours post-dosing for PK sample collection and safety assessments and were discharged from the clinic on Day 3. Subjects returned to the clinic on Day 4 for additional safety assessments, then again on Day 9 ± 1 for a final follow-up visit.
# Safety assessments included telemetry (pre-dose and 12 hours during and post-dosing), 12-lead ECG measurements, vital signs (supine and standing) including systolic blood pressure (SBP) and diastolic blood pressure (DBP) (mmHg), pulse rate (beats/minute), respiratory rate (breaths/minute), and oral temperature, physical examinations, clinical laboratory assessments (hematology, clinical chemistry, coagulation, urinalysis, platelet function), stool evaluation including occult blood, and adverse events (AEs).
# Safety oversight was provided by an independent safety monitor (ISM), Safety Review Committee (SRC), and Safety Monitoring Committee (SMC). In addition, a cardiologist reviewed all cases with AEs related to heart rate and blood pressure. Summary statistics for subject baseline characteristics and measurements, disposition, exposure, and safety were tabulated by cohort in a blinded manner for the review by the SRC and SMC. Blinded individual case information was also supplied to the SMC and cardiologist for review. SRC reviews occurred after all subjects in a given cohort completed evaluations, or after predefined criteria triggered a review (halting criteria). Provided satisfactory safety review, subjects were enrolled into the next higher dose cohort. In addition, the SMC met to review all safety and exposure data after completion of Cohort 3. All AEs were coded to System Organ Class (SOC) and Preferred Term (PT) using the Medical Dictionary for Regulatory Activities (MedDRA), Version 16.1 [34].
# All AEs were graded for severity and relationship to study product, according to one of the following categories:
# • Grade 1: An event that is easily tolerated by the subject, causing minimal discomfort and not interfering with everyday activities; • Grade 2: An event that is sufficiently discomforting to interfere with normal everyday activities; • Grade 3: An event that prevents normal everyday activities; • Grade 4: An event that requires an emergency room visit or hospitalization […]
# 9.1 Specification of Safety Parameters
# Safety is a primary outcome measure.
# Adverse events will be evaluated from time of dose administration through the follow-up visit. Adverse events that have not resolved at the follow-up visit will be followed until resolution or until medically stable. […]
# If a vital sign measurement is observed to be abnormal, it may be repeated up to a total of 2 times at 5 to 10 minutes intervals. If a normal value is obtained, no further repeat measurements are required. If the value is still abnormal after 2 repeats, the least abnormal value will be utilized for grading the AE. The AE will […]
# [2] = cited from earlier work
# [3] = set-up: method as in Investigator’s Brochure (IB); conditions: dogs, ref Investigator’s Brochure (IB), cited from earlier work; for Finding at the highest dose: 150 mg/kg/dose TID for seven days
# [4] = set-up: method as in Investigator’s Brochure (IB); conditions: beagle dogs, single dose of 400 mg/kg; ref Investigator’s Brochure (IB); cited from earlier work
smiles,measurement,setting,value
"COCCCCCCCCCN1C[C@H](O)[C@@H](O)[C@H](O)[C@H]1CO [UV-4, N-(9’-methoxynonyl)-1-deoxynojirimycin]",Grade 2 Related TEAE: number (%) of subjects,"[1]; both, human, in vivo",1 (2.1%)
same,Grade 3 Related TEAE: number (%) of subjects,"[1]; both, human, in vivo",0
same,Grade 3 TEAE: number (%) of subjects,"[1]; both, human, in vivo",1 (2.1%)
same,Incidence of Bristol Stool Scale Type 7,"[1]; both, human, in vivo",no incidence of Bristol Stool Scale Type 7
same,"Related TEAE, Abdominal Pain: number (%) of subjects","[1]; both, human, in vivo",1 (2.1%)
same,"Related TEAE, Balance disorder: number (%) of subjects","[1]; both, human, in vivo",1 (2.1%)
same,"Related TEAE, Blood Calcium Decreased: number (%) of subjects","[1]; both, human, in vivo",1 (2.1%)
same,"Related TEAE, Blood Pressure Decreased: number (%) of subjects","[1]; both, human, in vivo",0
same,"Related TEAE, Cardiac disorders (System Organ Class): number (%) of subjects","[1]; both, human, in vivo",1 (2.1%)
same,"Related TEAE, Dizziness postural: number (%) of subjects","[1]; both, human, in vivo",1 (2.1%)
same,"Related TEAE, Dizziness: number (%) of subjects","[1]; both, human, in vivo",1 (2.1%)
same,"Related TEAE, Ear and labyrinth disorders (System Organ Class): number (%) of subjects","[1]; both, human, in vivo",1 (2.1%)
same,"Related TEAE, Gastrointestinal disorders (System Organ Class): number (%) of subjects","[1]; both, human, in vivo",3 (6.3%)
same,"Related TEAE, General disorders and administration site conditions (System Organ Class): number (%) of subjects","[1]; both, human, in vivo",1 (2.1%)
same,"Related TEAE, Headache: number (%) of subjects","[1]; both, human, in vivo",2 (4.2%)
same,"Related TEAE, Investigations (System Organ Class): number (%) of subjects","[1]; both, human, in vivo",2 (4.2%)
same,"Related TEAE, Lipase increased: number (%) of subjects","[1]; both, human, in vivo",1 (2.1%)
same,"Related TEAE, Local Swelling: number (%) of subjects","[1]; both, human, in vivo",1 (2.1%)
same,"Related TEAE, Nervous system disorder (System Organ Class): number (%) of subjects","[1]; both, human, in vivo",4 (8.3%)
same,"Related TEAE, Neutrophil count decreased: number (%) of subjects","[1]; both, human, in vivo",0
same,"Related TEAE, Presyncope: number (%) of subjects","[1]; both, human, in vivo",0
same,"Related TEAE, Proteinuria: number (%) of subjects","[1]; both, human, in vivo",1 (2.1%)
same,"Related TEAE, Renal and urinary disorders (System Organ Class): number (%) of subjects","[1]; both, human, in vivo",1 (2.1%)
same,"Related TEAE, Supraventricular tachycardia: number (%) of subjects","[1]; both, human, in vivo",0
same,"Related TEAE, Ventricular tachycardia: number (%) of subjects","[1]; both, human, in vivo",1 (2.1%)
same,"Related TEAE, Vertigo: number (%) of subjects","[1]; both, human, in vivo",1 (2.1%)
same,"Related TEAE, White blood cell count decreased: number (%) of subjects","[1]; both, human, in vivo",0
same,Subjects with ≥1 TEAE: number (%) of subjects,"[1]; both, human, in vivo",43 (89.6%)
same,Tolerability of single oral doses,"[1]; both, human, in vivo",safe at all doses tested up to 1000 mg
same,Grade 1 Related TEAE: number (%) of subjects,"[1]; human, in vivo",10 (20.8%)
same,TEAE Haematuria: number (%) of subjects,"[1]; human, in vivo",4 (8.3)
same,TEAE Headache: number (%) of subjects,"[1]; human, in vivo",3 (6.3)
same,TEAE Prothrombin time prolonged: number (%) of subjects,"[1]; human, in vivo",4 (8.3)
same,Dose-dependent increases in adverse events,[1]; in vivo,not observed
same,Fecal occult blood findings,[1]; in vivo,None of the subjects had positive fecal occult blood findings
same,Subjects reporting abdominal pain,[1]; in vivo,two
same,Subjects who vomited,[1]; in vivo,one
same,Dose-limiting toxicity,[1]; in vivo,No dose limiting toxicity was observed
same,Tolerability of single oral doses,[1]; in vivo,well tolerated
same,Maximum tolerated dose,[1],> 1000 mg
same,Accumulation,"[2]; BID or TID dosing after 14 days in mouse or dog, ref Investigator’s Brochure (IB)",did not accumulate
same,Finding at the highest dose,[3],severe GI effects
same,Finding at 10 mg/kg/dose TID,[3],diarrhea was still apparent although not adverse
"COCCCCCCCCCN1C[C@H](O)[C@@H](O)[C@H](O)[C@H]1CO [UV-4B, N-(9’-methoxynonyl)-1-deoxynojirimycin hydrochloride]","Related TEAE, Balance disorder: number (%) of subjects","[1]; both, human, in vivo",1/48
same,"Related TEAE, Dizziness postural: number (%) of subjects","[1]; both, human, in vivo",1/48
same,"Related TEAE, Dizziness: number (%) of subjects","[1]; both, human, in vivo",1/48
same,"Related TEAE, Headache: number (%) of subjects","[1]; both, human, in vivo",2/48
same,Dose-limiting toxicity,[1]; in vivo,not observed
same,Maximum tolerated dose,[1],> 1000 mg
same,Neurologic finding,[4],tremors
same,Bioavailability of the hydrochloride salt,[2]; animal studies,high bioavailability
same,Finding at the highest dose,[3],severe GI effects
same,Finding at 10 mg/kg/dose TID,[3],diarrhea was still apparent
